Experimental data: patent publication US20080188445A1, “TETRACYCLINE COMPOSITIONS FOR TOPICAL ADMINISTRATION” (WARNER CHILCOTT COMPANY INC., priority 2007, published 2008)
Structures can show the parent of a compound that is named as a salt.

Experiment: Permeation through a silicone membrane, pH effect (side-by-side permeation apparatus)
Type: in vitro ADME
Details: 32° C.
Source text: A further study investigated the permeation of minocycline from a liquid formulation comprising 0.47% (w/w) minocycline HCl dissolved in water through a silicone membrane as function of the pH. The diffusion of tetracycline from commercially available Topicycline® (0.2% w/w tetracycline HCl) across a silicone membrane was also compared under equivalent conditions. The permeation apparatus used (FIG. 1) was as follows. The apparatus consisted of two water-jacketed compartments 1 and 2, separated by a standard silicone membrane 3 (SMEM001 002, Esco Rubber, Barloworld Scientific Ltd, UK), which were clamped together. Each water-jacketed compartment 1 and 2 had respective water inlets 4 and water outlets 5 on the respective outer compartments 6, said outer compartments containing water. Inner compartment 7 for containing sample and inner compartment 8 for containing dissolution medium are also shown. The liquid formulation (or the Topicycline®) was immediately introduced into the inner compartment 7 via port 10. A pre-heated 0.9% saline solution (32° C.) was introduced via the sampling port 9 in the inner compartment 8.

CN(C)c1ccc(O)c2c1C[C@H]1C[C@H]3[C@H](N(C)C)C(O)=C(C(N)=O)C(=O)[C@@]3(O)C(O)=C1C2=O [Minocycline HCl]
Amount of Tetracycline or Minocycline (μg) detected after 6 hours (pH 5.0, receiver 0.9% saline): 0.17 µg | Amount of Tetracycline or Minocycline (μg) detected after 6 hours (pH 6.2, receiver 0.9% saline): 0.55 µg | Amount of Tetracycline or Minocycline (μg) detected after 6 hours (pH 7.0, receiver 0.9% saline): 0.31 µg
